Patent US20230045245A1, “HETEROCYCLIC COMPOUND OR SALT THEREOF, ACTIVE MATERIAL, ELECTROLYTIC SOLUTION AND REDOX FLOW BATTERY” (NIPPON KAYAKU KABUSHIKI KAISHA, priority 2020, published 2023)
Like-named read-outs stand apart in the source and are kept apart here.

Key:
[1] = Solubility to water calculated from UV-visible absorbance; conditions: for Solubility (%): saturated solution in water, diluted with standard buffer pH 6.86 (25° C.), absorbance at maximum absorption wavelength 300-550 nm, calibration curve
[2] = pH 6.86
[3] = solubility to water, calculated from solubility (%), density of the solution assumed to be 1.0 g/cm^3
[4] = water, thermodynamic from solid

Row | SMILES | Solubility (%) [1] [%] | solubility [1, 4] [mM] | solubility [1, 3] [mM] | Solubility (%) [2] [%]
1 | O=C1c2cccc(S(=O)(=O)[O-])c2C(=O)c2cccc(S(=O)(=O)[O-])c21.[Na+].[Na+] [9,10-anthraquinone-1,5-disulfonic acid (Na), reference compound] | 2.7 | – | 70 | –
2 | O=C1c2cccc(S(=O)(=O)[O-])c2C(=O)c2c1cccc2S(=O)(=O)[O-].[K+].[K+] [9,10-anthraquinone-1,8-disulfonic acid (K), reference compound] | 0.2 | – | 4 | –
3 | O=C1c2ccccc2C(=O)c2cc(S(=O)(=O)[O-])ccc21.[Na+] [9,10-anthraquinone-2-sulfonic acid (Na)] | – | – | – | 0.7
4 | O=C1c2cc(OCCOCCOCCO)c(O)c(OCCOCCOCCO)c2C(=O)c2cc(OCCOCCOCCO)c(O)c(OCCOCCOCCO)c21 [formula (3-5)] | 41.8 | 500 | – | –

Continued, in another order:

Row | Solubility (%) [1] [%] | solubility [1, 4] [mM] | SMILES | solubility [1, 3] [mM] | Solubility (%) [2] [%]
5 | 36.6 | 670 | O=C1C(SCCCS(=O)(=O)[O-])=C(SCCCS(=O)(=O)[O-])C(=O)c2ccccc21.[K+].[K+] [formula (2-1)] | – | –
6 | 17.7 | 200 | O=C([O-])COc1cc2c(c(OCC(=O)[O-])c1OCC(=O)[O-])C(=O)c1cc(OCC(=O)[O-])c(OCC(=O)[O-])c(OCC(=O)[O-])c1C2=O.[K+].[K+].[K+].[K+].[K+].[K+] [formula (3-2)] | – | –
7 | 35.3 | 510 | O=C1c2ccccc2C(=O)c2c1cc(OCCCS(=O)(=O)[O-])c(OCCCS(=O)(=O)[O-])c2OCCCS(=O)(=O)[O-].[Na+].[Na+].[Na+] [formula (3-3)] | – | –
